Results taken from PMC8076852 (Frontiers in Molecular Biosciences, 2021).

Legend:
NCCCNCCCCNCCCN = assay: purified protein; conditions: pH 8.0; 37.0 °C
R1C3 = test system: T1, R1C3
T1 construct: gene speG

R1C1 = test system: T2, R1C1
T2 construct: gene speG

R3C2 = test system: T3, R3C2
T3 construct: gene speG

R1C2 = test system: T4, R1C2
T4 construct: gene speG

Compound | K0.5 (NCCCNCCCCNCCCN) | Km (R1C3) | Km (R1C1) | Km (R3C2) | Km (R1C2)
(Vibrio cholerae O1 biovar El Tor str. N16961) | 0.222 ± 0.005 mM | – | – | – | –
NCCCNCCCCNCCCN [spermine] | – | 244 ± 20 µM | 2530 ± 710 µM | 98 ± 8 µM | 364 ± 8 µM
